{"source": "paper PMC6162791", "about": "“Phoneutria nigriventer Spider Toxin PnTx2-1 (δ-Ctenitoxin-Pn1a) Is a Modulator of Sodium Channel Gating” (Toxins, 2018)", "key": {"NaV1.1 [1]": {"biological_target": "T1, NaV1.1 (Homo sapiens, UniProt P35498)", "assay": "Two-electrode voltage clamp in Xenopus oocytes, NaV1.1 modulation / concentration-response", "format": "cell-based, mammalian", "conditions": "NaV1.1, 1 µM"}, "NaV1.2": {"test_system": "NaV1.2", "assay": "Two-electrode voltage clamp in Xenopus oocytes, NaV1.2 modulation", "format": "cell-based, mammalian"}, "NaV1.3": {"test_system": "NaV1.3", "assay": "Two-electrode voltage clamp in Xenopus oocytes, NaV1.3 modulation", "format": "cell-based, mammalian"}, "NaV1.4": {"test_system": "NaV1.4", "assay": "Two-electrode voltage clamp in Xenopus oocytes, NaV1.4 modulation", "format": "cell-based, mammalian"}, "NaV1.5 [2]": {"biological_target": "T2, NaV1.5 (Homo sapiens, UniProt Q14524)", "T2 sequence (Q14524 whole entry, looked up)": "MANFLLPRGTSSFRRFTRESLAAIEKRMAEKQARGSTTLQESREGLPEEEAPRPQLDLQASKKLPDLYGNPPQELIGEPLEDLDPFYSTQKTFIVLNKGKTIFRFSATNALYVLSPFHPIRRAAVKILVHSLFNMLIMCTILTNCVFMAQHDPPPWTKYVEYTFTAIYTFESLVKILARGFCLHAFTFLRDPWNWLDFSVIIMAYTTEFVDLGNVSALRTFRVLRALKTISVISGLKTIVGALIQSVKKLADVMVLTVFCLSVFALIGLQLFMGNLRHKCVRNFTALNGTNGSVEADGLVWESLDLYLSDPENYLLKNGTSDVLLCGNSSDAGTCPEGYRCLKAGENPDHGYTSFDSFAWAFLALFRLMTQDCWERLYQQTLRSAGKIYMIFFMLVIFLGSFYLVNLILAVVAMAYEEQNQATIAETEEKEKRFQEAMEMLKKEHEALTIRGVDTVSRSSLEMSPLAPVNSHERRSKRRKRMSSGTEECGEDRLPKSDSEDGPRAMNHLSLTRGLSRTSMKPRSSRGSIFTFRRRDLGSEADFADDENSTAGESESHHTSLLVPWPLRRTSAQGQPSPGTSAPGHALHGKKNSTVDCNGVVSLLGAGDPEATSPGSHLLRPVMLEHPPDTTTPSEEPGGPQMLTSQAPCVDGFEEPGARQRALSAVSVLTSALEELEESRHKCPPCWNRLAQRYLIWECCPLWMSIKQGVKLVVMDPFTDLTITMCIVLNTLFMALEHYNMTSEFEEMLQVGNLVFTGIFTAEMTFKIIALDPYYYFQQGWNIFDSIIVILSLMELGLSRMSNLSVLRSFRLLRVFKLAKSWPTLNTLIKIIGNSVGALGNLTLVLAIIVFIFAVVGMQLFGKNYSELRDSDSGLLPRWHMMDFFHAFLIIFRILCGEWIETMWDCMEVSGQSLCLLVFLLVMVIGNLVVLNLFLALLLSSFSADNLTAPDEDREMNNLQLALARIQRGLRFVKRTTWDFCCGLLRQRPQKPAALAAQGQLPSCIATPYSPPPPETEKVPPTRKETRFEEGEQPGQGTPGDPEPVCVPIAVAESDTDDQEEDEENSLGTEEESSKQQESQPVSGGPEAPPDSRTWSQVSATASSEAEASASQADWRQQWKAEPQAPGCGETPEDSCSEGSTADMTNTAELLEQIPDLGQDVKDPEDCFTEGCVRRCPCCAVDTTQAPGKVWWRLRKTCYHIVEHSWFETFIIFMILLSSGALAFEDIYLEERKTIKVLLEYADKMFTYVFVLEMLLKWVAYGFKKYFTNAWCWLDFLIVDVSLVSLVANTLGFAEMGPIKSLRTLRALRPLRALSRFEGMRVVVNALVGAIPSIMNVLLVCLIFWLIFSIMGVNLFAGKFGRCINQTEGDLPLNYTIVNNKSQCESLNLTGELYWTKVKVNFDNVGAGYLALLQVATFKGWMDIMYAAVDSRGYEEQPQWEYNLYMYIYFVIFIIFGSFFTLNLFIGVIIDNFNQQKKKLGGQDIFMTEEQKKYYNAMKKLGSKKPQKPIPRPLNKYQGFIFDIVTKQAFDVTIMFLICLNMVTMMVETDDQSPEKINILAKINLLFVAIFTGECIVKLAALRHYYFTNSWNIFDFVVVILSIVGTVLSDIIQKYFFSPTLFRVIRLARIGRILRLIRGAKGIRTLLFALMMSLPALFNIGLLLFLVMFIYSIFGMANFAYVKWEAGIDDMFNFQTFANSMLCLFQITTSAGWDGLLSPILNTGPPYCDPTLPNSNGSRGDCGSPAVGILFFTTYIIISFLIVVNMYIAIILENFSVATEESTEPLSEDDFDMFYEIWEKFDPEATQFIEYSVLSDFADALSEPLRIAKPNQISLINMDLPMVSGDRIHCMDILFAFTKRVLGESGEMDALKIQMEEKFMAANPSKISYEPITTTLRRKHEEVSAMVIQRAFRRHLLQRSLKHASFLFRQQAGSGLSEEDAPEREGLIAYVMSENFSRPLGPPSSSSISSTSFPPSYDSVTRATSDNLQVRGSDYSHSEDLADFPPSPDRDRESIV", "assay": "Two-electrode voltage clamp in Xenopus oocytes, NaV1.5 modulation / concentration-response", "format": "cell-based, mammalian", "conditions": "NaV1.5, 1 µM"}, "NaV1.6": {"test_system": "NaV1.6", "assay": "Two-electrode voltage clamp in Xenopus oocytes, NaV1.6 modulation", "format": "cell-based, mammalian"}, "NaV1.8 [3]": {"biological_target": "T3, NaV1.8 (Homo sapiens, UniProt Q9Y5Y9)", "T3 sequence (Q9Y5Y9 whole entry)": "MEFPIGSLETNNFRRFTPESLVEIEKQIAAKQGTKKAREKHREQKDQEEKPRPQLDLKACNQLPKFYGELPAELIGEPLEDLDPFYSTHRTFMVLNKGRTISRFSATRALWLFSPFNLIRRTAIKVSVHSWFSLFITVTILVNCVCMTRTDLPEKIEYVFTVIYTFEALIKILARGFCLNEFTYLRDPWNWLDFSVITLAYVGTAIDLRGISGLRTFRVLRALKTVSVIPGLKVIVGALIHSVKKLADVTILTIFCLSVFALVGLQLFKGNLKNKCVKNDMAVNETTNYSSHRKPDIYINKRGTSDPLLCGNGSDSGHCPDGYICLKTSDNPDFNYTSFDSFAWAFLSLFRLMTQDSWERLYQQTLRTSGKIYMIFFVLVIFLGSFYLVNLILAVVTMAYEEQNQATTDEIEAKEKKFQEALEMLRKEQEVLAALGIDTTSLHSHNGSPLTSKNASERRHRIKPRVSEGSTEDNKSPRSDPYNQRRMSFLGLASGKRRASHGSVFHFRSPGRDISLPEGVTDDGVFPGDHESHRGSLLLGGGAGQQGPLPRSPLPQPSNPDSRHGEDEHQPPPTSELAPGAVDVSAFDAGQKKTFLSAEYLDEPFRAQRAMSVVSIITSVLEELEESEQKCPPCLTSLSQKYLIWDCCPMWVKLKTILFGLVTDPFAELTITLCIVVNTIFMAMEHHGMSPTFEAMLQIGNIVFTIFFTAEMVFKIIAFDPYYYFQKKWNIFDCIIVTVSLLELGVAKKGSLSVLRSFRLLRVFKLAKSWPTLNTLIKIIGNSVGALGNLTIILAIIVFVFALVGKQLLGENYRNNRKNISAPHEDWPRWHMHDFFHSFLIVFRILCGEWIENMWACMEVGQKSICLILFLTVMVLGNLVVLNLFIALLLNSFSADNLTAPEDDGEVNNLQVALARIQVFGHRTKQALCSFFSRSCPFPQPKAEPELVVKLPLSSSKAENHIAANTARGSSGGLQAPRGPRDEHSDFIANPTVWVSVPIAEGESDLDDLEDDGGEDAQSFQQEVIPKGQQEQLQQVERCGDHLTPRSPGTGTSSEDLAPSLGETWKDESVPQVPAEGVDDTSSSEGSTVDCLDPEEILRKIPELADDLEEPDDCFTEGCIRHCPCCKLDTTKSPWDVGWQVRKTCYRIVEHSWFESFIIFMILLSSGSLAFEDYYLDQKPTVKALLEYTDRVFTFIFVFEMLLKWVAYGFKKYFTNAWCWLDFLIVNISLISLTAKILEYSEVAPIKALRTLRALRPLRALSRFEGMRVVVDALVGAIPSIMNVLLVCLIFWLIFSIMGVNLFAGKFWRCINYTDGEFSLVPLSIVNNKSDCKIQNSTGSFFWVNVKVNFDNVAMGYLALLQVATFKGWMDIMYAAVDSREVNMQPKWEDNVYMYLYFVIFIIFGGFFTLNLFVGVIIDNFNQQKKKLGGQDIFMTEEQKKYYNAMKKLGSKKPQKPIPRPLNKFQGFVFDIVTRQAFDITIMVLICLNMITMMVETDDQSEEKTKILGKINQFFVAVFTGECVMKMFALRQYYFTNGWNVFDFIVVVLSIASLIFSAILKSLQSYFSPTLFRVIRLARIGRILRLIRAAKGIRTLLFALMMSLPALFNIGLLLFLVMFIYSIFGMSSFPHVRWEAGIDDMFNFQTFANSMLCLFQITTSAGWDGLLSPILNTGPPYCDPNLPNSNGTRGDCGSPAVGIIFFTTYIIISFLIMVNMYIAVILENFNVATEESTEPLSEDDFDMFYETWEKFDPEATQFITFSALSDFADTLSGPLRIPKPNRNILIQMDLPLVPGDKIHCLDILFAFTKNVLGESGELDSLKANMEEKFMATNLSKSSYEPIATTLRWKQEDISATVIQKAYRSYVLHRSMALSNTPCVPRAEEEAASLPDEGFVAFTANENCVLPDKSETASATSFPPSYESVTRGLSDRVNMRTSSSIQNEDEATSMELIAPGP", "assay": "Two-electrode voltage clamp in Xenopus oocytes, NaV1.8 modulation / concentration-response", "format": "cell-based, mammalian", "conditions": "NaV1.8, 1 μM"}, "BgNaV1 [4]": {"test_system": "BgNaV1", "assay": "Two-electrode voltage clamp in Xenopus oocytes, BgNaV1 modulation / concentration-response", "format": "cell-based, Blattella germanica"}, "VdNaV1": {"test_system": "VdNaV1", "assay": "Two-electrode voltage clamp in Xenopus oocytes, VdNaV1 modulation / concentration-response", "format": "cell-based, Varroa destructor"}, "NaV1.1 [5]": {"biological_target": "T1, NaV1.1", "assay": "Voltage dependence of activation and steady-state inactivation, NaV1.1", "format": "cell-based, mammalian", "conditions": "NaV1.1, 1 µM"}, "NaV1.5 [6]": {"biological_target": "T2, NaV1.5", "assay": "Current-voltage relationship, activation and steady-state inactivation, NaV1.5", "format": "cell-based, mammalian"}, "NaV1.8 [7]": {"biological_target": "T3, NaV1.8", "assay": "Voltage dependence of activation and steady-state inactivation, NaV1.8", "format": "cell-based, mammalian"}, "BgNaV1 [8]": {"test_system": "BgNaV1", "assay": "Voltage dependence of activation and steady-state inactivation, BgNaV1", "format": "cell-based, Blattella germanica"}, "NaV1.5 [9]": {"biological_target": "T2, NaV1.5", "assay": "Recovery from inactivation, NaV1.5", "format": "cell-based, mammalian", "conditions": "NaV1.5, 1 µM"}, "BgNaV1 [10]": {"test_system": "BgNaV1", "assay": "Recovery from fast inactivation, BgNaV1", "format": "cell-based, Blattella germanica", "conditions": "BgNaV1, 1 µM"}, "NaV1.5 [11]": {"biological_target": "T2, NaV1.5", "format": "cell-based, mammalian"}, "BgNaV1 [12]": {"test_system": "BgNaV1", "assay": "State-dependence (toxin incubation without depolarizing pulses), BgNaV1", "format": "cell-based, Blattella germanica", "conditions": "BgNaV1, 1 µM"}, "NaV channels": {"test_system": "NaV channels", "assay": "NaV channel panel in Xenopus oocytes (ion selectivity, species selectivity)", "format": "cell-based", "conditions": "presence of toxin, ion selectivity not altered"}, "mice": {"test_system": "mice", "conditions": "cited from earlier work", "description": "Spiders can be considered one of the most successful venomous animals ever to inhabit the planet with over 47,000 species characterized to date. Despite this diversity, no more than 100 spider species have had their venom investigated. With over ten million estimated biologically active peptides in spider venoms, this means that less than 0.01% of spider peptides have been studied, making spider venom an untapped treasure of biologically active compounds with promising discoveries in drug and bioinsecticide development. Phoneutria nigriventer are very ..."}, "PnTx2-6 binding site": {"test_system": "PnTx2-6 binding site", "conditions": "ref [14]; cited from earlier work", "description": "PnTx2-1 shares the highest sequence identity with PnTx2-5 and PnTx2-6, which are also isolated from the Phoneutria nigriventer venom fraction 2 [13]. PnTx2-5 and PnTx2-6 are the best-characterized toxins from the PhTx2 venom fraction. These two toxins share 90% sequence identity, with only five amino acid residues different (Figure 1). […] Both peptides modulate sodium chann ..."}}, "note": "Bridge positions count the residues as written; N and C are the ends. Ends that are not written are not given here.", "data": [{"compound": "ATCAGQDKPCKETCDCCGERGECVCALSYEGKYRCICRQGNFLIAWHKLASCK (disulfide 3-17, 10-23, 14-52, 16-37, 25-35) [PnTx2-1]", "values": [{"measurement": "effect on inactivation", "setting": "NaV1.1 [1]", "value": "slowed the inactivation"}, {"measurement": "effect on channel", "setting": "NaV1.2; NaV1.2, 1 μM", "value": "not affected"}, {"measurement": "activity on channel", "setting": "NaV1.2; NaV1.2, up to 5 µM, data not shown", "value": "no activity"}, {"measurement": "effect on channel", "setting": "NaV1.3; NaV1.3, 1 μM", "value": "not affected"}, {"measurement": "activity on channel", "setting": "NaV1.3; NaV1.3, up to 5 µM, data not shown", "value": "no activity"}, {"measurement": "effect on channel", "setting": "NaV1.4; NaV1.4, 1 μM", "value": "not affected"}, {"measurement": "activity on channel", "setting": "NaV1.4; NaV1.4, up to 5 µM, data not shown", "value": "no activity"}, {"measurement": "effect on inactivation", "setting": "NaV1.5 [2]", "value": "slowed the inactivation"}, {"measurement": "effect on channel", "setting": "NaV1.6; NaV1.6, 1 μM", "value": "not affected"}, {"measurement": "activity on channel", "setting": "NaV1.6; NaV1.6, up to 5 µM, data not shown", "value": "no activity"}, {"measurement": "effect on inactivation", "setting": "NaV1.8 [3]", "value": "slowed the inactivation"}, {"measurement": "effect on inactivation", "setting": "BgNaV1 [4]; BgNaV1, 1 µM", "value": "completely inhibited inactivation of BgNaV1 channels, resulting in sustained non-inactivating currents"}, {"measurement": "EC50", "setting": "BgNaV1 [4]; BgNaV1, modulation (current at 30 ms / control peak), Hill fit, Xenopus oocytes, ND96 pH 7.5, 18–22 °C, holding −90 mV, mean ± SEM, n ≥ 3", "value": "91.9 ± 17", "unit": "nM"}, {"measurement": "effect on inactivation", "setting": "VdNaV1; VdNaV1, 1 μM", "value": "profound effect on the inactivation"}, {"measurement": "EC50", "setting": "VdNaV1; VdNaV1, modulation (current at 30 ms / control peak), Hill fit, Xenopus oocytes, ND96 pH 7.5, 18–22 °C, holding −90 mV, mean ± SEM, n ≥ 3", "value": "102 ± 14.7", "unit": "nM"}, {"measurement": "shift of midpoint of activation", "setting": "NaV1.1 [5]", "value": "the midpoint of activation shifted towards more depolarized potentials"}, {"measurement": "shift of steady-state inactivation curve", "setting": "NaV1.1 [5]", "value": "the steady-state inactivation curves shifted towards more hyperpolarized membrane potentials"}, {"measurement": "window of open probability", "setting": "NaV1.1 [5]", "value": "increased window of open probability"}, {"measurement": "shift of midpoint of activation", "setting": "NaV1.5 [6]; NaV1.5, 1 µM", "value": "the midpoint of activation shifted towards more depolarized potentials"}, {"measurement": "shift of steady-state inactivation curve", "setting": "NaV1.5 [6]; NaV1.5, 1 µM", "value": "the steady-state inactivation curves shifted towards more hyperpolarized membrane potentials"}, {"measurement": "window of open probability", "setting": "NaV1.5 [6]; NaV1.5, 1 µM", "value": "increased window of open probability"}, {"measurement": "V1/2 of activation", "setting": "NaV1.5 [6]; NaV1.5, 1 µM toxin, control −53.1 ± 0.1, mean ± SEM, n ≥ 3", "value": "−45.3 ± 0.1", "unit": "mV"}, {"measurement": "V1/2 of steady-state inactivation", "setting": "NaV1.5 [6]; NaV1.5, 1 µM toxin, control −78.4 ± 0.2, mean ± SEM, n ≥ 3", "value": "−87.5 ± 0.7", "unit": "mV"}, {"measurement": "effect on sodium peak current", "setting": "NaV1.5 [6]; NaV1.5, Figure 2E, Figure 3B and Figure 5A", "value": "inhibition of the sodium peak current"}, {"measurement": "modulation of gating kinetics", "setting": "NaV1.8 [7]; NaV1.8, 1 μM", "value": "No relevant modulation of the gating kinetics"}, {"measurement": "V1/2 of activation", "setting": "NaV1.8 [7]; NaV1.8, 1 µM toxin, control −11.5 ± 0.1, mean ± SEM, n ≥ 3", "value": "−11.4 ± 0.1", "unit": "mV"}, {"measurement": "completeness of steady-state inactivation", "setting": "BgNaV1 [8]; BgNaV1, 1 µM", "value": "steady-state inactivation became incomplete after toxin addition"}, {"measurement": "shift of activation midpoint and steady-state inactivation", "setting": "BgNaV1 [8]; BgNaV1, 1 µM", "value": "A shift in the midpoint of activation and in the voltage dependence of steady-state inactivation"}, {"measurement": "V1/2 of activation", "setting": "BgNaV1 [8]; BgNaV1, 1 µM toxin, control −38.1 ± 0.1, mean ± SEM, n ≥ 3", "value": "−45.8 ± 0.3", "unit": "mV"}, {"measurement": "non-inactivating current component of steady-state inactivation", "setting": "BgNaV1 [8]; BgNaV1, 1 µM, mean ± SEM, n ≥ 3", "value": "62.3 ± 3.2", "unit": "%"}, {"measurement": "recovery from inactivation", "setting": "NaV1.5 [9]", "value": "strongly enhanced the recovery from inactivation"}, {"measurement": "recovery from inactivation, τ", "setting": "NaV1.5 [9]; control τ = 50.2 ± 3.0 ms, mean ± SEM, n ≥ 3", "value": "22.8 ± 3.2", "unit": "ms"}, {"measurement": "recovery from fast inactivation", "setting": "BgNaV1 [10]", "value": "does not influence the recovery from fast inactivation"}, {"measurement": "binding at neurotoxin site 1", "setting": "NaV1.5 [11]", "value": "does not bind at site 1"}, {"measurement": "effect on peak amplitude after TTX", "setting": "NaV1.5 [11]", "value": "additional reduction of the peak amplitude"}, {"measurement": "slowing of inactivation after closed-state incubation", "setting": "BgNaV1 [12]; 2 min at −90 mV without depolarizing pulses, then pulse to 0 mV", "value": "significant slowing down of inactivation"}, {"measurement": "toxin interaction state", "setting": "BgNaV1 [12]; closed state", "value": "toxin interaction with the channel in the closed state"}, {"measurement": "reversal potential", "setting": "NaV channels", "value": "No significant change in the reversal potential"}, {"measurement": "signs after injection", "setting": "mice; injected, ref [12]", "value": "pruritus, lacrimation, increased salivation, sweating and agitation followed by spastic paralysis of the limbs"}, {"measurement": "toxicity after intracerebral injection", "setting": "mice; intracerebral (i.c.), among the nine PhTx2 peptides, ref [13]", "value": "higher toxicity"}]}, {"compound": "NC1=N[C@H](O)[C@H]2[C@H]3O[C@]4(O)O[C@@H]([C@@H](O)[C@@]2(N1)[C@@H]4O)[C@]3(O)CO", "note": "[tetrodotoxin (TTX), tetrodotoxin, reference compound]", "values": [{"measurement": "decrease of the sodium current peak amplitude", "setting": "NaV1.5 [11]", "value": 50, "unit": "%"}]}, {"compound": "CssIV: β-scorpion toxin CssIV (from Centruroides suffusus suffusus)", "values": [{"measurement": "competition with PnTx2-6", "setting": "PnTx2-6 binding site", "value": "does not compete with PnTx2-6"}]}]}
